Here are results for 34 molecules from patent publication US9556139B2, “6-substituted phenoxychroman carboxylic acid derivatives” (Array BioPharma Inc., priority 2008, dated 2017).

Where two headings read alike, the source gives them in different places.

In the experiment the target is human DP2 (Homo sapiens (Human), UniProt Q9Y5Y4). The experiment is described as follows: DP-2 Binding Inhibition Assay (3H-PGD2 binding to membranes of K562 cells expressing DP2). Conditions: inhibition of 3H-PGD2 binding. In short, it runs like this: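 Membranes from K562 stably expressing DP2, incubated 60 min at room temperature with ³H-PGD2 and compound in Tris pH 7.4 buffer with 0.1% BSA, 1% HSA or 4% HSA; filtration read-out. Nonspecific binding: 1 μM unlabeled PGD2 or 5 μM known antagonist. EC50 from 4-parameter logistic fit.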
Sequence of human DP2 (Q9Y5Y4 whole entry): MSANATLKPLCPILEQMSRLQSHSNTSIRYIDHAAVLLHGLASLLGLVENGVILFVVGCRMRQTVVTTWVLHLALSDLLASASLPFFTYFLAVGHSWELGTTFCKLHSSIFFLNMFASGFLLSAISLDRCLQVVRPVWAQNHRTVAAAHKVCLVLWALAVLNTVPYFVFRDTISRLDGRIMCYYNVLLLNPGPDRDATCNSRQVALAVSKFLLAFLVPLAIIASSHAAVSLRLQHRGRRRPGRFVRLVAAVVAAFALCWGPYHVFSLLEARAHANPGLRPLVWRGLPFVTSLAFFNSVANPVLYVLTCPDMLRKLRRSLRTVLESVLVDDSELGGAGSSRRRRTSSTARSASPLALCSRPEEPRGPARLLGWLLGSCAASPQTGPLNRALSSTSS

Where [1] appears, read: read-out: EC50 (nM) 4% HSA, 4% HSA.
[2] abbreviates: read-out: EC50 (Nm) 1% HSA, 1% HSA.

As for `COc1ccc(C2CCC(NC(=O)c3ccc(Oc4cc5c(cc4Cl)C(C(=O)O)CCO5)cc3)C2)cc1` (stereo not shown) [Example 174, Sodium 6-chloro-7-(4-(3-(4-methoxyphenyl)cyclopentylcarbamoyl)phenoxy)chroman-4-carboxylate], the EC50 under setting [1] is 723 nM. Same read-out and setting: the value for `CSc1ccc(C2CCC(NC(=O)c3ccc(Oc4cc5c(cc4Cl)C(C(=O)O)CCO5)cc3)C2)cc1` (stereo not shown) [Example 175, Sodium 6-chloro-7-(4-(3-(4-(methylthio)phenyl)cyclopentylcarbamoyl)phenoxy)chroman-4-carboxylate] was 572 nM; that for `O=C(NC1CCC(c2ccc(Cl)cc2)CC1)c1ccc(Oc2cc3c(cc2Cl)C(C(=O)O)CCO3)cc1` (stereo not shown) [Example 176, Sodium 6-chloro-7-(4-(4-(4-chlorophenyl)cyclohexylcarbamoyl)phenoxy)chroman-4-carboxylate] was 339 nM.

On to `O=C(NC(CO)Cc1ccc(Cl)cc1)c1ccc(Oc2cc3c(cc2Cl)C(C(=O)O)CCO3)cc1` (stereo not shown) [Example 178, Sodium 6-chloro-7-(4-(1-(4-chlorophenyl)-3-hydroxypropan-2-ylcarbamoyl)phenoxy)chroman-4-carboxylate], for which the half-maximal effective concentration (EC50) under setting [1] was found to be 1730 nM. Still for that read-out and setting: the value for `CC(C)(C)CCNC(=O)c1ccc(Oc2cc3c(cc2Cl)C(C(=O)O)CCO3)cc1` (stereo not shown) [Example 179, Sodium 6-chloro-7-(4-(3,3-dimethylbutylcarbamoyl)phenoxy)chroman-4-carboxylate] was 1110 nM. As for `O=C(NCCC1CCCCC1)c1ccc(Oc2cc3c(cc2Cl)C(C(=O)O)CCO3)cc1` (stereo not shown) [Example 180, Sodium 6-chloro-7-(4-(2-cyclohexylethylcarbamoyl)phenoxy)chroman-4-carboxylate], the 50% effective concentration (EC50) under setting [1] amounted to 407 nM. Consider `Cc1cc(C(=O)NCCc2ccc(Cl)cc2)ccc1Oc1cc2c(cc1Cl)C(C(=O)O)CCO2` (stereo not shown) [Example 181, Sodium 6-chloro-7-(4-(4-chlorophenethylcarbamoyl)-2-methylphenoxy)chroman-4-carboxylate], for which the concentration giving a half-maximal response (EC50) under setting [1] was 331 nM. On to `Cc1cc(C(=O)NCCc2ccc(Cl)cc2Cl)ccc1Oc1cc2c(cc1Cl)C(C(=O)O)CCO2` (stereo not shown) [Example 182, Sodium 6-chloro-7-(4-(2,4-dichlorophenethylcarbamoyl)-2-methylphenoxy)chroman-4-carboxylate], for which the 50% effective concentration (EC50) under setting [1] amounted to 151 nM. On the same count and under the same terms, the value for `Cc1cc(Oc2cc3c(cc2Cl)C(C(=O)O)CCO3)ccc1C(=O)NCCc1ccc(Cl)cc1Cl` (stereo not shown) [Example 183, Sodium 6-chloro-7-(4-(2,4-dichlorophenethylcarbamoyl)-3-methylphenoxy)chroman-4-carboxylate] was 968 nM. With `O=C(NCC(O)c1ccc(Cl)cc1)c1ccc(Oc2cc3c(cc2Cl)C(C(=O)O)CCO3)cc1` (stereo not shown) [Example 184, Sodium 6-chloro-7-(4-(2-(4-chlorophenyl)-2-hydroxyethylcarbamoyl)phenoxy)chroman-4-carboxylate], the EC50 under setting [1] came out at 824 nM. Consider `O=C(NCC(O)c1ccccc1Cl)c1ccc(Oc2cc3c(cc2Cl)C(C(=O)O)CCO3)cc1` (stereo not shown) [Example 185, Sodium 6-chloro-7-(4-(2-(2-chlorophenyl)-2-hydroxyethylcarbamoyl)phenoxy)chroman-4-carboxylate], for which, under setting [1], the concentration giving a half-maximal response (EC50) is 857 nM. The same measure, in the same setting: the value for `O=C(NCCC1CCCC1)c1ccc(Oc2cc3c(cc2Cl)C(C(=O)O)CCO3)cc1` (stereo not shown) [Example 186, Sodium 6-chloro-7-(4-(2-cyclopentylethylcarbamoyl)phenoxy)chroman-4-carboxylate] was 538 nM. Consider `O=C(NC1COC2(CCCC2)C1)c1ccc(Oc2cc3c(cc2Cl)C(C(=O)O)CCO3)cc1` (stereo not shown) [Example 187, Sodium 7-(4-(1-oxaspiro[4.4]nonan-3-ylcarbamoyl)phenoxy)-6-chlorochroman-4-carboxylate], for which the EC50 under setting [1] was determined as 649 nM. The same measure, in the same setting: the value for `COC(CNC(=O)c1ccc(Oc2cc3c(cc2Cl)C(C(=O)O)CCO3)cc1)c1ccc(Cl)cc1` (stereo not shown) [Example 188, Sodium 6-chloro-7-(4-(2-(4-chlorophenyl)-2-methoxyethylcarbamoyl)phenoxy)chroman-4-carboxylate] was 759 nM; that for `O=C(NCCc1cccc2c1OCO2)c1ccc(Oc2cc3c(cc2Cl)C(C(=O)O)CCO3)cc1` (stereo not shown) [Example 193, sodium 7-(4-(2-(benzo[d][1,3]dioxol-4-yl)ethylcarbamoyl)phenoxy)-6-chlorochroman-4-carboxylate] was 640 nM; that for `O=C(NCCc1cccn1-c1ccc(C(F)(F)F)cc1)c1ccc(Oc2cc3c(cc2Cl)C(C(=O)O)CCO3)cc1` (stereo not shown) [Example 194, sodium 6-chloro-7-(4-(2-(1-(4-(trifluoromethyl)phenyl)-1H-pyrrol-2-yl)ethylcarbamoyl)phenoxy)chroman-4-carboxylate] was 3010 nM. As to `O=C(NCC(F)(F)c1ccc(Cl)cc1)c1ccc(Oc2cc3c(cc2Cl)C(C(=O)O)CCO3)cc1` (stereo not shown) [Example 195, sodium 6-chloro-7-(4-(2-(4-chlorophenyl)-2,2-difluoroethylcarbamoyl)phenoxy)chroman-4-carboxylate], the EC50 under setting [1] was 1150 nM.

Regarding `CCc1ccccc1CCNC(=O)c1ccc(Oc2cc3c(cc2Cl)C(C(=O)O)CCO3)cc1` (stereo not shown) [Example 196, sodium 6-chloro-7-(4-(2-ethylphenethylcarbamoyl)phenoxy)chroman-4-carboxylate], under setting [1], the 50% effective concentration (EC50) came out at 269 nM. Same read-out and setting: to `O=C(NCC(O)c1ccc(Cl)cc1Cl)c1ccc(Oc2cc3c(cc2Cl)C(C(=O)O)CCO3)cc1` (stereo not shown) [Example 197, sodium 6-chloro-7-(4-(2-(2,4-dichlorophenyl)-2-hydroxyethylcarbamoyl)phenoxy)chroman-4-carboxylate] belongs 689 nM; to `O=C(NCCc1ccc(Cl)cc1OCC1CC1)c1ccc(Oc2cc3c(cc2Cl)C(C(=O)O)CCO3)cc1` (stereo not shown) [Example 199, sodium 6-chloro-7-(4-(4-chloro-2-(cyclopropyl-methoxy)phenethylcarbamoyl)phenoxy)chroman-4-carboxylate], 111 nM. With `CCOc1cc(Cl)c(Cl)cc1CCNC(=O)c1ccc(Oc2cc3c(cc2Cl)C(C(=O)O)CCO3)cc1` (stereo not shown) [Example 201, sodium 6-chloro-7-(4-(4,5-dichloro-2-ethoxyphenethylcarbamoyl)phenoxy)chroman-4-carboxylate], the EC50 under setting [1] stood at 138 nM. Same read-out and setting: the value for `CC(C)Oc1cc(Cl)ccc1CCNC(=O)c1ccc(Oc2cc3c(cc2Cl)C(C(=O)O)CCO3)cc1` (stereo not shown) [Example 202, sodium 6-chloro-7-(4-(4-chloro-2-isopropoxy-phenethylcarbamoyl)phenoxy)chroman-4-carboxylate] was 71.6 nM; that for `O=C(NCCc1cc(F)ccc1Oc1ccc(Cl)c(Cl)c1)c1ccc(Oc2cc3c(cc2Cl)C(C(=O)O)CCO3)cc1` (stereo not shown) [Example 212, sodium 6-chloro-7-(4-(2-(3,4-dichlorophenoxy)-5-fluorophenethylcarbamoyl)phenoxy)chroman-4-carboxylate] was 81.5 nM; that for `O=C(NCCc1cc(F)ccc1Oc1ccc(Cl)cc1Cl)c1ccc(Oc2cc3c(cc2Cl)C(C(=O)O)CCO3)cc1` (stereo not shown) [Example 213, sodium 6-chloro-7-(4-(2-(2,4-dichlorophenoxy)-5-fluorophenethylcarbamoyl)phenoxy)chroman-4-carboxylate] was 45.1 nM. Consider `O=C(NCCc1ccc(Cl)cc1)c1ccc(Oc2cc(Cl)c3c(c2)OCCC3C(=O)O)cc1` (stereo not shown) [Example 218, 5-chloro-7-(4-(4-chlorophenethylcarbamoyl)phenoxy)chroman-4-carboxylic acid], for which the EC50 under setting [2] was determined as 144 nM. In the case of `N#Cc1cc2c(cc1Oc1ccc(C(=O)NCC3(c4ccc(Cl)cc4)CC3)cc1)OCCC2C(=O)O` (stereo not shown) [Example 219, 7-(4-((1-(4-chlorophenyl)cyclopropyl)methylcarbamoyl)phenoxy)-6-cyanochroman-4-carboxylic acid], the EC50 under setting [2] is 1040 nM.

As to `O=C(NCCOc1ccccc1)c1ccc(Oc2cc3c(cc2Cl)C(C(=O)O)CCO3)cc1` (stereo not shown) [Example 220, 6-chloro-7-(4-(2-phenoxyethylcarbamoyl)phenoxy)chroman-4-carboxylic acid], the concentration giving a half-maximal response (EC50) under setting [1] is more than 2000 nM. Same read-out and setting: to `O=C(NCCc1ccc(C(F)(F)F)cc1C(F)(F)F)c1ccc(Oc2cc3c(cc2Cl)C(C(=O)O)CCO3)cc1` (stereo not shown) [Example 221, 7-(4-(2,4-bis(trifluoromethyl)phenethylcarbamoyl)phenoxy)-6-chlorochroman-4-carboxylic acid] belongs 45 nM; to `COc1cc(OC)c(CCNC(=O)c2ccc(Oc3cc4c(cc3Cl)C(C(=O)O)CCO4)cc2)c(OC)c1` (stereo not shown) [Example 222, 6-chloro-7-(4-(2,4,6-trimethoxyphenethylcarbamoyl)phenoxy)chroman-4-carboxylic acid], 118 nM; to `O=C(NCCc1ccc(OC(F)F)cc1)c1ccc(Oc2cc3c(cc2Cl)C(C(=O)O)CCO3)cc1` (stereo not shown) [Example 223, 6-chloro-7-(4-(4-(difluoromethoxy)phenethylcarbamoyl)phenoxy) chroman-4-carboxylic acid], 209 nM. `COc1cc(Cl)c(CCNC(=O)c2ccc(Oc3cc4c(cc3Cl)C(C(=O)O)CCO4)cc2)c(Cl)c1` (stereo not shown) [Example 224, 6-chloro-7-(4-(2,6-dichloro-4-methoxyphenethylcarbamoyl)phenoxy)chroman-4-carboxylic acid]: the 50% effective concentration (EC50) under setting [1] is 373 nM. Same read-out and setting: the value for `CCOc1ccc(CCNC(=O)c2ccc(Oc3cc4c(cc3Cl)C(C(=O)O)CCO4)cc2)c(OCC)c1` (stereo not shown) [Example 225, 6-chloro-7-(4-(2,4-diethoxyphenethylcarbamoyl)phenoxy)chroman-4-carboxylic acid] was 56 nM; that for `COc1cc(Cl)c(CCNC(=O)c2ccc(Oc3cc4c(cc3Cl)C(C(=O)O)CCO4)cc2)c(OC)c1` (stereo not shown) [Example 226, 6-chloro-7-(4-(2-chloro-4,6-dimethoxyphenethylcarbamoyl)phenoxy)chroman-4-carboxylic acid] was 88.5 nM.

As to `CCOc1ccc(CCNC(=O)c2ccc(Oc3cc4c(cc3Cl)C(C(=O)O)CCO4)cc2)c(OC)c1` (stereo not shown) [Example 227, 6-chloro-7-(4-(4-ethoxy-2-methoxyphenethylcarbamoyl)phenoxy)chroman-4-carboxylic acid], the 50% effective concentration (EC50) under setting [1] was 74.5 nM.

As a reminder, the EC50 is the concentration needed to bring the measured effect to its halfway point.
